Measurements taken from ChEMBL document CHEMBL1127901, “Conformationally constrained analogues of dag .8. Changes in PK-C binding affinity produced by isosteric groups of the 3-O-acyl function in 2-deoxy-L-ribonolactones” (Bioorg Med Chem Lett, 1994).

What follows are molecules tested against Protein kinase C (PKC) (assay: Inhibition of [3H]PDBU binding to protein kinase C mixture).
Assay type: protein assay, Rattus norvegicus

| Ki [µM] | Compound |
| --- | --- |
| 2.5 | CCCCCCCCCCCCCC(=O)O[C@@H]1CC(=O)O[C@H]1CO |

These molecules were tested against Protein kinase C alpha type (Rattus norvegicus, UniProt P05696) (assay: Inhibition of [3H]PDBU binding to Protein kinase C alpha).

| Ki [µM] | Compound |
| --- | --- |
| 3.1 | CCCCCCCCCCCCCC(=O)OC[C@@H]1CC(=O)O[C@H]1CO |
| 18.6 | CCCCCCCCCCCCCCOC(=O)C[C@@H]1CC(=O)O[C@H]1CCO |
| 0.88 | CCCCCCCCCCCCCC(=O)O[C@@H]1CC(=O)O[C@H]1CCO |
| 1.5 | CCCCCCCCCCCCCC(=O)O[C@@H]1CC(=O)O[C@H]1CO |
| 1.47 | CCCCCCCCCCCCCCOC(=O)C[C@@H]1CC(=O)O[C@H]1CO |

Each molecule was assayed against Protein kinase C (PKC) (assay: Inhibition of [3H]-PDBU binding to protein kinase C mixture).
Assay type: protein assay, Rattus norvegicus

| Ki [µM] | Compound |
| --- | --- |
| 3.31 | CCCCCCCCCCCCCCO[C@@H]1CC(=O)O[C@H]1CO |
| 8.07 | CCCCCCCCCCCCCCOC(=O)[C@@H]1CC(=O)O[C@H]1CO |
| 50.75 | CCCCCCCCCCCCCCC(=O)[C@@H]1CC(=O)O[C@H]1CO |
